# Results: ChEMBL document CHEMBL1132543, “N-deacetyl-N-aminoacylthiocolchicine derivatives: synthesis and biological evaluation on MDR-positive and MDR-negative human cancer cell lines” (J Med Chem, 1999)
# Tests used:
# [1] = system: MCF7; test: Anti tumor activity on human breast cancer cell line MDR-positive MCF-7 ADRr after 72 hours of treatment; assay type: functional, cell-based; details: MCF7, 72 h
# [2] = system: MDA-MB-231; test: cells; assay type: functional, cell-based; details: Homo sapiens, MDA-MB-231, 72 h
# Description: Anti tumor activity on human breast cancer cell line MDR-negative MDA-MB 231 after 72 hours of treatment
IC50 [1] [nM],IC50 [2] [nM],SMILES
20000,35,COc1cc2c(c(OC)c1OC)-c1ccc(SC)c(=O)cc1[C@@H](NC(=O)[C@@H](N)CCSC)CC2.COc1cc2c(c(OC)c1OC)-c1ccc(SC)c(=O)cc1[C@@H](NC(=O)[C@H](N)CCSC)CC2
1700,3,COc1cc2c(c(OC)c1OC)-c1ccc(SC)c(=O)cc1[C@@H](NC(=O)[C@@H](N)c1ccccc1)CC2.COc1cc2c(c(OC)c1OC)-c1ccc(SC)c(=O)cc1[C@@H](NC(=O)[C@H](N)c1ccccc1)CC2
10000,7.6,COc1cc2c(c(OC)c1OC)-c1ccc(SC)c(=O)cc1[C@@H](NC(=O)CN)CC2
10000,90,COc1cc2c(c(OC)c1OC)-c1ccc(SC)c(=O)cc1[C@@H](NC(=O)[C@H](C)N)CC2
12000,150,COc1cc2c(c(OC)c1OC)-c1ccc(SC)c(=O)cc1[C@@H](NC(=O)[C@@H](C)N)CC2
2100,12,COc1cc2c(c(OC)c1OC)-c1ccc(SC)c(=O)cc1[C@@H](NC(=O)[C@@H](C)NC(=O)C(F)(F)F)CC2.COc1cc2c(c(OC)c1OC)-c1ccc(SC)c(=O)cc1[C@@H](NC(=O)[C@H](C)NC(=O)C(F)(F)F)CC2
1500,24,COc1cc2c(c(OC)c1OC)-c1ccc(SC)c(=O)cc1[C@@H](NC(=O)[C@@H](NC(=O)C(F)(F)F)c1ccccc1)CC2.COc1cc2c(c(OC)c1OC)-c1ccc(SC)c(=O)cc1[C@@H](NC(=O)[C@H](NC(=O)C(F)(F)F)c1ccccc1)CC2
800,19,COc1cc2c(c(OC)c1OC)-c1ccc(SC)c(=O)cc1[C@@H](NC(=O)[C@@H](C)N)CC2.COc1cc2c(c(OC)c1OC)-c1ccc(SC)c(=O)cc1[C@@H](NC(=O)[C@H](C)N)CC2
10000,37,COc1cc2c(c(OC)c1OC)-c1ccc(SC)c(=O)cc1[C@@H](NC(=O)[C@@H](CCSC)NC(=O)C(F)(F)F)CC2.COc1cc2c(c(OC)c1OC)-c1ccc(SC)c(=O)cc1[C@@H](NC(=O)[C@H](CCSC)NC(=O)C(F)(F)F)CC2

SMILES,IC50 [1] [nM],IC50 [2] [nM]
COc1cc2c(c(OC)c1OC)-c1ccc(SC)c(=O)cc1[C@@H](NC(=O)C(F)(F)F)CC2,35,1.3
COc1cc2c(c(OC)c1OC)-c1ccc(OC)c(=O)cc1[C@@H](NC(C)=O)CC2 [COLCHICINE],–,1.8
COc1cc2c(c(OC)c1OC)-c1ccc(SC)c(=O)cc1[C@@H](NC(=O)CNC(=O)C(F)(F)F)CC2,12000,6
